Assays:
oval-leafed pondweed [1] = assay: Test Example 1: herbicidal activity, application before weed generation under submerged conditions (Table 16, symbol C); type: in vivo, oval-leafed pondweed (Monochoria vaginalis); settings: 320 g/ha applied herbicide
Method in brief: (§1)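 Emulsion formulation, water-diluted to set dose, was put onto the flooded surface (4 cm depth, alluvial soil) the same day weeds were sown and 2.5-leaf rice transplanted. After 3 weeks at 25-30 °C under glass, each species was rated 0 (≤5% kill) to 5 (≥90% kill).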

velvetleaf = assay: Test Example 5: herbicidal effect by foliage application, plastic box (Table 20, symbol M); type: in vivo, velvetleaf (Abutilon theophrasti); settings: foliage application; for herbicidal effect grade, M: velvetleaf: three weeks after application
Method in brief: (§2)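 Plants were sown into sterilized diluvial soil under about 1.5 cm cover and kept in a greenhouse at 25° C. to 30° C. Fourteen days on, foliage received an even spray of the diluted emulsion. Herbicidal or crop effect was judged three weeks afterwards.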

wild oat [2] = assay: Test Example 5: herbicidal effect by foliage application, plastic box (Table 20, symbol I); type: in vivo, wild oat (Avena fatua); settings: foliage application; for herbicidal effect grade, I: wild oat: three weeks after application
Method in brief: as §2

redroot pigweed [3] = assay: Test Example 4: herbicidal effect by soil treatment (Table 19, symbol N); type: in vivo, redroot pigweed (Amaranthus retroflexus); settings: amount of applied herbicide 320 g/ha
Method in brief: (§3)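 In this soil treatment, the formulated compound reached the seeds only through the soil: seeds were buried about 1.5 cm deep in sterilized diluvial soil, then the diluted emulsion was sprayed over the surface. After three weeks at 25° C. to 30° C. in a greenhouse, effects were graded on criteria from an earlier test.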

barnyard grass [4] = assay: Test Example 4: herbicidal effect by soil treatment (Table 19, symbol H); type: in vivo, barnyard grass (Echinochloa crus-galli); settings: amount of applied herbicide 320 g/ha
Method in brief: as §3

green foxtail [5] = assay: Test Example 5: herbicidal effect by foliage application, plastic box (Table 20, symbol G); type: in vivo, green foxtail (Setaria viridis); settings: foliage application; for herbicidal effect grade, G: green foxtail: three weeks after application
Method in brief: as §2

oval-leafed pondweed [6] = assay: Test Example 2: herbicidal activity, application during weed generation under submerged conditions (Table 17, symbol C); type: in vivo, oval-leafed pondweed (Monochoria vaginalis); settings: AAH 320 g/ha; application during weed generation, submerged conditions
Method in brief: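 Effect on each weed is rated three weeks post-treatment, using the same scoring criteria as the preceding test. Plants grow from mixed-sown seed in flooded alluvial soil (4 cm water) at 25° C. to 30° C., and are treated at one to two leaves with diluted emulsion dropped onto the water.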

chickweed [7] = assay: Test Example 4: herbicidal effect by soil treatment (Table 19, symbol P); type: in vivo, common chickweed (Stellaria media); settings: amount of applied herbicide 320 g/ha
Method in brief: as §3

rice flat sedge = assay: Test Example 3: herbicidal effect by foliage application, Wagner pot (Table 18, symbol E); type: in vivo, rice flat sedge (Cyperus iria); settings: for herbicidal effect on E: rice flat sedge: amount of applied herbicide 320 g/ha; for herbicidal effect on E (rice flat sedge), rating 0-5: 320 g/ha
Method in brief: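 Plants were sown in alluvial soil held under 0.1–0.5 cm standing water and grown 14 days in a greenhouse at 25–30 °C. An emulsifiable formulation, water-diluted to the set dose, was then sprayed onto the foliage, and effects were scored three weeks later using previously defined criteria.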

chickweed [8] = assay: Test Example 5: herbicidal effect by foliage application, plastic box (Table 20, symbol P); type: in vivo, common chickweed (Stellaria media); settings: foliage application; for herbicidal effect grade, P: chickweed: three weeks after application
Method in brief: as §2

wild oat [9] = assay: Test Example 4: herbicidal effect by soil treatment (Table 19, symbol I); type: in vivo, wild oat (Avena fatua); settings: amount of applied herbicide 320 g/ha
Method in brief: as §3

barnyard grass [10] = assay: Test Example 5: herbicidal effect by foliage application, plastic box (Table 20, symbol H); type: in vivo, barnyard grass (Echinochloa crus-galli); settings: foliage application; for herbicidal effect grade, H: barnyard grass: three weeks after application
Method in brief: as §2

blackgrass = assay: Test Example 5: herbicidal effect by foliage application, plastic box (Table 20, symbol J); type: in vivo, blackgrass (Alopecurus myosuroides); settings: foliage application; for herbicidal effect grade, J: blackgrass: three weeks after application
Method in brief: as §2

redroot pigweed [11] = assay: Test Example 5: herbicidal effect by foliage application, plastic box (Table 20, symbol N); type: in vivo, redroot pigweed (Amaranthus retroflexus); settings: foliage application; for herbicidal effect grade, N: redroot pigweed: three weeks after application
Method in brief: as §2

green foxtail [12] = assay: Test Example 4: herbicidal effect by soil treatment (Table 19, symbol G); type: in vivo, green foxtail (Setaria viridis); settings: amount of applied herbicide 320 g/ha
Method in brief: as §3

Japanese bulrush = assay: Test Example 1: herbicidal activity, application before weed generation under submerged conditions (Table 16, symbol B); type: in vivo, Japanese bulrush (Schoenoplectus juncoides); settings: 320 g/ha applied herbicide
Method in brief: as §1

[13] = 320 g/ha, evaluated three weeks after application
[14] = AAH 320 g/ha, evaluated three weeks after application

Compound	Herbicidal effect on C: oval-leafed pondweed (grade 0-5) (oval-leafed pondweed [1])	herbicidal effect rating, C: oval-leafed pondweed (oval-leafed pondweed [6])	herbicidal effect on E: rice flat sedge (rice flat sedge)	Herbicidal effect on B: Japanese bulrush (grade 0-5) (Japanese bulrush)	herbicidal effect grade, M: velvetleaf (velvetleaf; 320 g/ha)	herbicidal effect grade, I: wild oat (wild oat [2]; 320 g/ha)	herbicidal effect rating, N: redroot pigweed (redroot pigweed [3])	herbicidal effect rating, H: barnyard grass (barnyard grass [4])	herbicidal effect grade, G: green foxtail (green foxtail [5]; 320 g/ha)	herbicidal effect rating, P: chickweed (chickweed [7])	herbicidal effect on E (rice flat sedge), rating 0-5 (rice flat sedge)	herbicidal effect grade, P: chickweed (chickweed [8]; 320 g/ha)	herbicidal effect rating, I: wild oat (wild oat [9])	herbicidal effect grade, H: barnyard grass (barnyard grass [10]; 320 g/ha)	herbicidal effect grade, J: blackgrass (blackgrass; 320 g/ha)	herbicidal effect grade, N: redroot pigweed (redroot pigweed [11]; 320 g/ha)	herbicidal effect rating, G: green foxtail (green foxtail [12])	further results
Cc1nn(C)c(=O)c(-c2c(-c3ccc(OC4CC4)cc3)sc3ccc(F)cc23)c1O [2-217]	4 (Herbicidal rate of 70% or more and less than 90%)	0 (Herbicidal rate of 5% or less (almost no effect))	5 (Herbicidal rate of 90% or more (almost completely withered))	5 (Herbicidal rate of 90% or more (almost completely withered))	–	–	–	–	–	–	–	–	–	–	–	–	–	herbicidal effect on M: velvetleaf (criteria 0-5) (velvetleaf; [13]): 5 (Herbicidal rate of 90% or more (almost completely withered)); herbicidal effect on I: wild oat (criteria 0-5) (wild oat [2]; [13]): 4 (Herbicidal rate of 70% or more and less than 90%); N: redroot pigweed, herbicidal effect rating (redroot pigweed [3]): 4 (Herbicidal rate of 70% or more and less than 90%); H: barnyard grass, herbicidal effect rating (barnyard grass [4]): 5 (Herbicidal rate of 90% or more (almost completely withered)); herbicidal effect on G: green foxtail (criteria 0-5) (green foxtail [5]; [13]): 4 (Herbicidal rate of 70% or more and less than 90%); P: chickweed, herbicidal effect rating (chickweed [7]): 4 (Herbicidal rate of 70% or more and less than 90%); herbicidal effect on P: chickweed (criteria 0-5) (chickweed [8]; [13]): 5 (Herbicidal rate of 90% or more (almost completely withered)); I: wild oat, herbicidal effect rating (wild oat [9]): 0 (Herbicidal rate of 5% or less (almost no effect)); herbicidal effect on H: barnyard grass (criteria 0-5) (barnyard grass [10]; [13]): 5 (Herbicidal rate of 90% or more (almost completely withered)); herbicidal effect on J: blackgrass (criteria 0-5) (blackgrass; [13]): 1 (Herbicidal rate of 5% or more and less than 20%); herbicidal effect on N: redroot pigweed (criteria 0-5) (redroot pigweed [11]; [13]): 5 (Herbicidal rate of 90% or more (almost completely withered)); G: green foxtail, herbicidal effect rating (green foxtail [12]): 1 (Herbicidal rate of 5% or more and less than 20%)
C=C(C)C(=O)Oc1c(C)nn(C)c(=O)c1-c1c(-c2ccc(OC(F)F)cc2)sc2ccc(F)cc12 [2-281]	4 (Herbicidal rate of 70% or more and less than 90%)	5 (Herbicidal rate of 90% or more (almost completely withered))	5 (Herbicidal rate of 90% or more (almost completely withered))	5 (Herbicidal rate of 90% or more (almost completely withered))	–	–	–	–	–	–	–	–	–	–	–	–	–	M: velvetleaf, herbicidal effect (criteria 0-5) (velvetleaf; [14]): 5 (Herbicidal rate of 90% or more (almost completely withered)); I: wild oat, herbicidal effect (criteria 0-5) (wild oat [2]; [14]): 4 (Herbicidal rate of 70% or more and less than 90%); herbicidal effect on N: redroot pigweed (redroot pigweed [3]): 5 (Herbicidal rate of 90% or more (almost completely withered)); herbicidal effect on H: barnyard grass (barnyard grass [4]): 4 (Herbicidal rate of 70% or more and less than 90%); G: green foxtail, herbicidal effect (criteria 0-5) (green foxtail [5]; [14]): 4 (Herbicidal rate of 70% or more and less than 90%); herbicidal effect on P: chickweed (chickweed [7]): 4 (Herbicidal rate of 70% or more and less than 90%); P: chickweed, herbicidal effect (criteria 0-5) (chickweed [8]; [14]): 5 (Herbicidal rate of 90% or more (almost completely withered)); herbicidal effect on I: wild oat (wild oat [9]): 0 (Herbicidal rate of 5% or less (almost no effect)); H: barnyard grass, herbicidal effect (criteria 0-5) (barnyard grass [10]; [14]): 5 (Herbicidal rate of 90% or more (almost completely withered)); J: blackgrass, herbicidal effect (criteria 0-5) (blackgrass; [14]): 4 (Herbicidal rate of 70% or more and less than 90%); N: redroot pigweed, herbicidal effect (criteria 0-5) (redroot pigweed [11]; [14]): 5 (Herbicidal rate of 90% or more (almost completely withered)); herbicidal effect on G: green foxtail (green foxtail [12]): 4 (Herbicidal rate of 70% or more and less than 90%)
CCCC(=O)Oc1c(C)nn(C)c(=O)c1-c1c(-c2ccc(SC)cc2)sc2ccccc12 [1-037]	3 (Herbicidal rate of 40% or more and less than 70%)	3 (Herbicidal rate of 40% or more and less than 70%)	–	4 (Herbicidal rate of 70% or more and less than 90%)	5 (Herbicidal rate of 90% or more (almost completely withered))	1 (Herbicidal rate of 5% or more and less than 20%)	5 (Herbicidal rate of 90% or more (almost completely withered))	2 (Herbicidal rate of 20% or more and less than 40%)	5 (Herbicidal rate of 90% or more (almost completely withered))	4 (Herbicidal rate of 70% or more and less than 90%)	5 (Herbicidal rate of 90% or more (almost completely withered))	5 (Herbicidal rate of 90% or more (almost completely withered))	0 (Herbicidal rate of 5% or less (almost no effect))	4 (Herbicidal rate of 70% or more and less than 90%)	4 (Herbicidal rate of 70% or more and less than 90%)	5 (Herbicidal rate of 90% or more (almost completely withered))	5 (Herbicidal rate of 90% or more (almost completely withered))	–
CCCC(=O)Oc1c(C)nn(C)c(=O)c1-c1c(-c2ccc(OC(C)C)cc2)sc2ccccc12 [1-021]	4 (Herbicidal rate of 70% or more and less than 90%)	0 (Herbicidal rate of 5% or less (almost no effect))	–	5 (Herbicidal rate of 90% or more (almost completely withered))	3 (Herbicidal rate of 40% or more and less than 70%)	0 (Herbicidal rate of 5% or less (almost no effect))	0 (Herbicidal rate of 5% or less (almost no effect))	0 (Herbicidal rate of 5% or less (almost no effect))	4 (Herbicidal rate of 70% or more and less than 90%)	5 (Herbicidal rate of 90% or more (almost completely withered))	5 (Herbicidal rate of 90% or more (almost completely withered))	5 (Herbicidal rate of 90% or more (almost completely withered))	0 (Herbicidal rate of 5% or less (almost no effect))	4 (Herbicidal rate of 70% or more and less than 90%)	1 (Herbicidal rate of 5% or more and less than 20%)	4 (Herbicidal rate of 70% or more and less than 90%)	1 (Herbicidal rate of 5% or more and less than 20%)	–

Source: patent US20230085307A1, “PYRIDAZINONE COMPOUND AND HERBICIDE” (NISSAN CHEMICAL CORPORATION, priority 2019, published 2023)
